Measurements taken from the supplement of paper PMC10307832.

Assays:
Assay in all cases: relative viability (nuclei count vs DMSO), 5 days (fraction); higher = more cells survive
[1] = compound: Cn1cc(-c2cnn3c(N)c(Br)c([C@@H]4CCCNC4)nc23)cn1 + CC(=O)c1c(C)c2cnc(Nc3ccc(N4CCNCC4)cn3)nc2n(C2CCCC2)c1=O [Palbociclib] (partner 0.5 µM)
In short: (§1)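 Values are medians from duplicate plates. Each reflects relative viability, defined as the nuclei count of treated wells over that of vehicle wells. Lung cancer cell lines in 1536-well plates were pin-tool dosed one day after seeding with one drug alone or with a fixed anchor-drug dose plus five library-drug doses (not always all listed) in √10 steps, then fixed, stained and imaged at 4× after 5 days.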

[2] = compound: Cn1cc(-c2cnn3c(N)c(Br)c([C@@H]4CCCNC4)nc23)cn1 + CC(C)C[C@H](NC(=O)[C@H](Cc1ccccc1)NC(=O)c1cnccn1)B(O)O [Bortezomib] (partner 0.002 µM)
In short: as §1

[3] = compound: Cn1cc(-c2cnn3c(N)c(Br)c([C@@H]4CCCNC4)nc23)cn1 + COc1cc2c(Oc3ccc(NC(=O)C4(C(=O)Nc5ccc(F)cc5)CC4)cc3F)ccnc2cc1OCCCN1CCOCC1 [Foretinib] (partner 0.25 µM)
In short: as §1

[4] = compound: Cn1cc(-c2cnn3c(N)c(Br)c([C@@H]4CCCNC4)nc23)cn1 + CS(=O)(=O)N1CCN(Cc2cc3nc(-c4cccc5[nH]ncc45)nc(N4CCOCC4)c3s2)CC1 [Pictilisib] (partner 1 µM)
In short: as §1

| Cell Line | relative viability ([1]; first compound 0.05 µM) | relative viability ([1]; first compound 0.1581 µM) | relative viability ([1]; first compound 0.5 µM) | relative viability ([1]; first compound 1.581 µM) | relative viability ([1]; first compound 5 µM) | relative viability ([2]; first compound 0.05 µM) | relative viability ([2]; first compound 0.1581 µM) | relative viability ([2]; first compound 0.5 µM) | relative viability ([2]; first compound 1.581 µM) | relative viability ([2]; first compound 5 µM) | relative viability ([3]; first compound 0.05 µM) | relative viability ([3]; first compound 0.1581 µM) | relative viability ([3]; first compound 0.5 µM) | relative viability ([3]; first compound 1.581 µM) | relative viability ([3]; first compound 5 µM) | relative viability ([4]; first compound 0.05 µM) | relative viability ([4]; first compound 0.1581 µM) | relative viability ([4]; first compound 0.5 µM) | relative viability ([4]; first compound 1.581 µM) | relative viability ([4]; first compound 5 µM) |
| --- | --- | --- | --- | --- | --- | --- | --- | --- | --- | --- | --- | --- | --- | --- | --- | --- | --- | --- | --- | --- |
| NCI-H522 | 1.1 | 0.918 | 0.757 | 1.07 | 0.95 |  |  |  |  |  |  |  |  |  |  |  |  |  |  |  |
| NCI-H596 |  |  |  |  |  | 1.06 | 0.964 | 0.9 | 0.804 | 1.02 | 0.871 | 0.797 | 0.778 | 0.83 | 0.674 | 0.386 | 0.401 | 0.427 | 0.362 | 0.413 |
| NCI-H1395 | 0.628 | 0.492 | 0.567 | 0.421 | 0.419 |  |  |  |  |  | 0.99 | 0.94 | 0.914 | 0.589 | 0.455 | 0.575 | 0.671 | 0.562 | 0.51 | 0.585 |
| NCI-H1563 |  |  |  |  |  | 0.887 | 0.74 | 0.742 | 0.805 | 0.706 | 0.939 | 1.02 | 0.841 | 0.921 | 0.875 | 0.581 | 0.63 | 0.658 | 0.585 | 0.595 |
| NCI-H1648 | 0.208 | 0.281 | 0.254 | 0.305 | 0.259 |  |  |  |  |  |  |  |  |  |  |  |  |  |  |  |
| NCI-H1703 |  |  |  |  |  | 0.231 | 0.261 | 0.19 | 0.132 | 0.138 | 0.334 | 0.288 | 0.337 | 0.196 | 0.178 | 0.237 | 0.183 | 0.178 | 0.156 | 0.155 |
| NCI-H1792 |  | 0.777 | 0.663 | 0.668 | 0.617 | 0.801 | 1.1 | 0.703 | 0.551 | 0.371 |  |  |  |  |  | 0.318 | 0.288 | 0.24 | 0.241 | 0.164 |
| NCI-H1793 | 0.349 | 0.281 | 0.32 | 0.301 | 0.31 |  |  |  |  |  | 0.71 | 0.806 | 0.63 | 0.683 | 0.518 | 0.306 | 0.411 | 0.308 | 0.21 | 0.191 |
| NCI-H1944 | 0.31 | 0.343 | 0.282 | 0.261 | 0.261 |  |  |  |  |  | 0.895 | 0.953 | 0.834 | 0.799 | 0.689 | 0.341 | 0.358 | 0.346 | 0.32 | 0.302 |
| NCI-H2170 | 0.402 | 0.407 | 0.366 | 0.345 | 0.397 |  |  |  |  |  | 1.02 | 0.934 | 0.963 | 1.02 | 1.1 | 0.281 | 0.299 | 0.262 | 0.274 | 0.295 |
| NCI-H2342 | 0.531 | 0.55 | 0.446 | 0.56 | 0.507 |  |  |  |  |  | 1.13 | 1.19 | 1.09 | 0.92 | 1.07 |  |  |  |  |  |
| SK-MES-1 | 0.315 | 0.327 | 0.308 | 0.273 | 0.238 |  |  |  |  |  | 0.909 | 1.04 | 0.946 | 0.867 | 0.566 | 0.333 | 0.395 | 0.336 | 0.288 | 0.216 |
| SW 900 | 0.53 | 0.527 | 0.535 | 0.444 | 0.529 |  |  |  |  |  | 0.828 | 0.817 | 0.78 | 0.768 | 0.39 |  |  |  |  |  |
